Source: ChEMBL document CHEMBL5370670, “Anti-MRSA Dimeric and Brominated Phenyltetracenoids Produced by Streptomyces morookaense SC1169” (J Nat Prod, 2023)
Converted amounts (≈) assume the structure as drawn. Counter-ions that a name gives are not always drawn.

Assays:
Staphylococcus aureus [1] = experiment: Antibacterial activity against methicillin-resistant Staphylococcus aureus incubated for 6 to 8 hrs by microplate Alamar Blue assay; assay type: functional; conditions: time 6-8 hrs
HeLa = experiment: Cytotoxicity against human HeLa cells assessed as cell growth inhibition incubated for 48 hrs by MTT assay; assay type: functional, cell-based
HepG2 = experiment: Cytotoxicity against human HepG2 cells assessed as cell growth inhibition incubated for 48 hrs by MTT assay; assay type: functional, cell-based; conditions: HepG2, 48 h
MCF7 = experiment: Cytotoxicity against human MCF7 cells assessed as cell growth inhibition incubated for 48 hrs by MTT assay; assay type: functional, cell-based; conditions: MCF7, 48 h
[2] = Selectivity index, ratio of IC50 for cytotoxicity against African green monkey Vero cells to IC50 for cytotoxicity against human A549 cells; assay type: toxicity, cell-based; conditions: Vero cells and A549 cells, read-out: Ratio IC50
[3] = Cytotoxicity against African green monkey Vero cells assessed as cell growth inhibition incubated for 48 hrs by MTT assay; assay type: toxicity, cell-based; conditions: African green monkey (Chlorocebus sabaeus)
A549 = experiment: Cytotoxicity against human A549 cells assessed as cell growth inhibition incubated for 48 hrs by MTT assay; assay type: functional, cell-based; conditions: A549, 48 h
Enterococcus faecium [4] = experiment: Antibacterial activity against Enterococcus faecium incubated for 6 to 8 hrs by microplate Alamar Blue assay; assay type: functional; conditions: time 6-8 hrs
Staphylococcus aureus [5] = experiment: Antibacterial activity against Staphylococcus aureus ATCC 6538 incubated for 6 to 8 hrs by microplate Alamar Blue assay; assay type: functional; conditions: time 6-8 hrs
Enterococcus faecium [6] = experiment: Antibacterial activity against vancomycin-resistant Enterococcus faecium incubated for 6 to 8 hrs by microplate Alamar Blue assay; assay type: functional; conditions: time 6-8 hrs

Structure (SMILES)	MIC (Staphylococcus aureus [1]) [µg/mL]	IC50 (HeLa) [µM]	IC50 (HepG2) [µM]	IC50 (MCF7) [µM]	selectivity ratio [2]	IC50 at 48 h [3] [µM]	IC50 (A549) [µM]	MIC (Enterococcus faecium [4]) [µg/mL]	MIC (Staphylococcus aureus [5]) [µg/mL]	MIC (Enterococcus faecium [6]) [µg/mL]
COc1cc(-c2c(O)cc(OC)c(Cc3c(OC)cc(O)c(-c4cc(OC)cc5cc6c(c(O)c45)C(=O)c4c(O)cc(O)cc4C6(C)C)c3C)c2C)c2c(O)c3c(cc2c1)C(C)(C)c1cc(O)cc(O)c1C3=O	2.5 (≈ 2.54 µM)	15.8	16.7	17.2	3	17.6	5.7	> 10	2.5 (≈ 2.54 µM)	–
COc1cc(C)c(-c2cc(OC)cc3cc4c(c(O)c23)C(=O)c2c(cc(O)c(Br)c2O)C4(C)C)c(O)c1	1.3 (≈ 2.3 µM)	3.6	5.2	8.9	–	9	3.3	1.3 (≈ 2.3 µM)	1.3 (≈ 2.3 µM)	2.5 (≈ 4.42 µM)
COc1cc(C)c(-c2cc(O)c(Br)c3cc4c(c(O)c23)C(=O)c2c(cc(OC)c(Br)c2O)C4(C)C)c(O)c1	1.3 (≈ 2.02 µM)	1.7	5.9	4.6	–	15.1	2.8	2.5 (≈ 3.88 µM)	1.3 (≈ 2.02 µM)	2.5 (≈ 3.88 µM)
COc1cc(C)c(C(=O)c2c(CC(C)=O)cc3c(c2O)C(=O)c2c(cc(OC)c(Br)c2OC)C3(C)C)c(OC)c1	> 10	12.6	13.6	12.3	–	> 50	10.2	> 10	> 10	–
COc1cc(-c2c(O)cc(OC)c(OC)c2C)c2c(O)c3c(cc2c1)C(C)(C)c1cc(O)cc(O)c1C3=O	5 (≈ 9.68 µM)	11.1	4.8	12.3	–	4.5	6.3	5 (≈ 9.68 µM)	5 (≈ 9.68 µM)	5 (≈ 9.68 µM)
COc1cc(C)c(-c2cc(OC)cc3cc4c(c(O)c23)C(=O)c2c(cc(OC)c(Br)c2O)C4(C)C)c(O)c1	> 10	1.7	4.7	7.9	–	7.3	3.3	> 10	> 10	–
COc1cc(C)c(-c2cc(OC)c(Br)c3cc4c(c(O)c23)C(=O)c2c(O)cc(O)cc2C4(C)C)c(O)c1	1.3 (≈ 2.3 µM)	5.8	4.5	5.3	–	5.7	3.1	1.3 (≈ 2.3 µM)	1.3 (≈ 2.3 µM)	1.3 (≈ 2.3 µM)
COc1cccc2c1C(=O)c1c(O)c3c(c(O)c1C2=O)C[C@@](O)(C(=O)CO)C[C@@H]3O[C@H]1C[C@H](N)[C@H](O)[C@H](C)O1 [DOXORUBICIN HYDROCHLORIDE]	–	–	0.8	–	–	–	0.7	–	–	–
NC[C@H]1O[C@H](O[C@H]2[C@H](O)[C@@H](O[C@H]3O[C@H](CO)[C@@H](O)[C@H](N)[C@H]3O)[C@H](N)C[C@@H]2N)[C@H](O)[C@@H](O)[C@@H]1O [KANAMYCIN]	–	–	–	–	–	–	–	–	1.3 (≈ 2.68 µM)	–
CN[C@H](CC(C)C)C(=O)N[C@H]1C(=O)N[C@@H](CC(N)=O)C(=O)N[C@H]2C(=O)N[C@H]3C(=O)N[C@H](C(=O)N[C@H](C(=O)O)c4cc(O)cc(O)c4-c4cc3ccc4O)[C@H](O)c3ccc(c(Cl)c3)Oc3cc2cc(c3O[C@@H]2O[C@H](CO)[C@@H](O)[C@H](O)[C@H]2O[C@H]2C[C@](C)(N)[C@H](O)[C@H](C)O2)Oc2ccc(cc2Cl)[C@H]1O [VANCOMYCIN]	0.6 (≈ 0.414 µM)	–	–	–	–	–	–	1.3 (≈ 0.897 µM)	–	> 40
